Data as given in PubChem BioAssay (NCI).
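Values below derive from 48-hour exposures of cells grown in 96-well plates, with endpoints linearly interpolated between the two concentrations bracketing the appropriate inhibition level. The concentration for full growth arrest is given as TGI.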 *1 amine or outer side, *2 acyl side, *3 side chain or, on linkers, in order; H or OH if unused. Where a SMILES comes first, the peptide text is derived from it. [ ]: non-standard residue; d: D form. ξ: configuration not given here. X22 = O=C(C(CC(O)CO)O[*:1])[*:2]; Ile(3ξ) = CCC(C)[C@H](N)C(=O)O; NMeV = CN[C@H](C(=O)O)C(C)C; NMeA = CN[C@@H](C)C(=O)O; βAla = NCCC(=O)O

What was measured:
Assay in all cases: NCI anticancer screen, dose series, 48 h
[1] = system: SF-539 CNS
[2] = system: SNB-19 CNS
[3] = system: SW-620 colon
[4] = system: M14 melanoma
[5] = system: NCI-H23 lung
[6] = system: UACC-257 melanoma
[7] = system: RXF 393 renal
[8] = system: LOX IMVI melanoma
[9] = system: MOLT-4 leukemia
[10] = system: HL-60(TB) leukemia
[11] = system: OVCAR-5 ovarian
[12] = system: OVCAR-3 ovarian
[13] = system: SF-295 CNS
[14] = system: HCC-2998 colon
[15] = system: HCT-116 colon
[16] = system: K-562 leukemia
[17] = system: SR leukemia
[18] = system: MDA-MB-435
[19] = system: PC-3 prostate

Compound	TGI [1]	TGI [2]	TGI [3]	TGI [4]	TGI [5]	TGI [6]	TGI [7]	TGI [8]	TGI [9]	TGI [10]	TGI [11]	TGI [12]	TGI [13]	TGI [14]	TGI [15]	TGI [16]	TGI [17]	TGI [18]	TGI [19]
CSc1nc2nc(C(O)C(O)C(O)CO)cnc2c(=O)[nH]1 (configuration not stated)	> 100 µM	> 100 µM	> 100 µM	> 100 µM	> 100 µM	> 100 µM	> 100 µM	> 100 µM	> 100 µM	> 100 µM	> 100 µM	> 100 µM	> 100 µM	> 100 µM	> 100 µM				
Cc1nc2ccc(N)cc2[nH]c1=O	> 100 µM	> 100 µM	> 100 µM	> 100 µM		> 100 µM		> 100 µM	> 100 µM	> 100 µM	> 100 µM	> 100 µM	> 100 µM	> 100 µM	> 100 µM	> 100 µM			
N#CC1CCCCC1NC1(C#N)CCCCC1 (configuration not stated)	> 100 µM	> 100 µM	> 100 µM	> 100 µM	> 100 µM	> 100 µM	> 100 µM	> 100 µM	> 100 µM	> 100 µM		> 100 µM	> 100 µM	> 100 µM		> 100 µM			
COC1=CC(=O)C2C(C1=O)C(c1ccc(Cl)cc1)[C@@H]2C (some centres not stated)	51.2 µM	80.3 µM	74.9 µM	71.7 µM	> 100 µM	> 100 µM	79.1 µM	> 100 µM	81.7 µM	55.7 µM	> 100 µM	> 100 µM	> 100 µM	> 100 µM	33.7 µM	> 100 µM			
CCC(C)[C@@H]1NC(=O)[C@@H]2CCCN2C(=O)C(CC(O)CO)OC(=O)CCNC(=O)[C@H](C)N(C)C(=O)[C@H](C(C)C)N(C)C1=O (some centres not stated) (cyclo([Ile(3ξ)][NMeV][NMeA][βAla][X22]P))	> 100 µM	> 100 µM	> 100 µM	> 100 µM	> 100 µM	> 100 µM	> 100 µM	> 100 µM	> 100 µM	> 100 µM	> 100 µM	> 100 µM	> 100 µM		> 100 µM	> 100 µM	> 100 µM		
Cc1ccc(S(=O)(=O)Oc2nc3nc4ccccc4nc3nc2OS(=O)(=O)c2ccc(C)cc2)cc1	> 100 µM	> 100 µM		> 100 µM	> 100 µM	> 100 µM	> 100 µM				> 100 µM	> 100 µM	> 100 µM	> 100 µM	> 100 µM			> 100 µM	> 100 µM
COC(=O)C(Cc1nc2ccccc2[nH]c1=O)C(=O)C(=O)Nc1ccc(F)cc1 (configuration not stated)	> 100 µM	> 100 µM	42.8 µM	> 100 µM	> 100 µM	> 100 µM	47.1 µM	> 100 µM	> 100 µM	> 100 µM		> 100 µM	> 100 µM	> 100 µM	> 100 µM		> 100 µM		
CCOC(=O)CC(NCc1ccc(N=Cc2nc3ccc(C(F)(F)F)cc3nc2-c2ccccc2)cc1)C(=O)OCC (configuration not stated)	> 58 µM	> 69.8 µM	> 100 µM	> 100 µM	> 100 µM	> 100 µM	56 µM	> 100 µM	> 100 µM	> 100 µM	> 100 µM	> 100 µM	> 100 µM	> 100 µM	> 100 µM	> 100 µM	> 100 µM		
C=C(C)CC(C)(c1cc2ccccc2n1C)N1CCOCC1 (configuration not stated)	> 100 µM	> 100 µM	> 100 µM	> 100 µM	> 100 µM	> 100 µM	> 100 µM	> 100 µM	> 100 µM	> 100 µM		> 100 µM	> 100 µM	> 100 µM	> 100 µM		> 100 µM		
CC(=O)NC(CCCNC(=O)OCc1ccccc1)C(=O)O (configuration not stated)	> 100 µM	> 100 µM	> 100 µM	> 100 µM	> 100 µM	> 100 µM	> 100 µM	> 100 µM	> 100 µM		> 100 µM	> 100 µM	> 100 µM	> 100 µM	> 100 µM	> 100 µM			
CCSc1nnc(-c2ccccc2)nc1Cc1ccc(OC)cc1	> 100 µM	> 100 µM	> 100 µM	> 100 µM	> 100 µM	> 100 µM	> 100 µM	> 100 µM	> 100 µM	> 100 µM		> 100 µM	> 100 µM	> 100 µM	> 100 µM	> 100 µM	> 100 µM		
C[N+]1(C)C[C@@H](O)C[C@@H]1C(=O)[O-]	> 100 µM	> 100 µM	> 100 µM	> 100 µM	> 100 µM	> 100 µM	> 100 µM	> 100 µM	> 100 µM	> 100 µM		> 100 µM	> 100 µM	> 100 µM	> 100 µM	> 100 µM	> 100 µM		
